{"source": "patent US9974760B2", "about": "“Compositions and methods for treating cancer” (Chemo-Enhanced LLC, priority 2011, dated 2018)", "key": {"cancer cells": {"tested_on": "cancer cells", "test": "Taxol induced cancer cell death with pathway inhibitors/activators (FIGS. 4A-4D)", "assay_type": "cell-based", "conditions": "added to Taxol", "excerpt": "The molecular mechanism involved in C6-ceramide induced chemosensitization effects was examined by focusing on taxol.\nTo further confirm the requirement of AMPK activation in this synergistic effect, siRNA directed against AMPK can be used."}, "L3.6 pancreatic cells": {"tested_on": "L3.6 pancreatic cells", "assay_type": "in vivo", "experimental": "Treatment was started 4 days after L3.6 cell injection with thrice weekly (3×/wk) intraperitoneal (i.p.) injections of paclitaxel 3.0 mg/ml with or without C6-ceramide (10 mg/ml) for 2 weeks. Mouse survival (FIGS. 2A and 2C), tumor volume (in cm^3; FIG. 2B), mouse body weight (in grams) were recorded (FIG. 2E). The average rate of tumor development was calculated by total tumor volume dividing by total number of days monitored (FIG. 2C).\n(§1) SCID/Beige/Taconic nude male mice (22-25 g; 6-8 weeks old) were ear tagged and randomized into 4 different groups (Control, Ceramide, gemcitabine, Ceramide+gemcitabine) combining 5 mice each prior to inoculation subcutaneous (s.c.) with 2×10^6 L3.6 cells in a 0.1 ml volume into the internal surface of the right thigh. Treatment was started 4 days after L3.6 cell injection with thrice weekly (3×/wk) intraperitoneal (i.p.) injections of gemcitabine (two doses: 5.0 and 10.0 mg/ml) with or without C6-ceramide (10 mg/ml) for 2 weeks. Mouse survival (FIGS. 3A, 3B, and 3E) and tumor volume (in cm^3; FIGS. 3C and 3D) were recorded (FIG. 3E). Pancreatic cancer cell lines, including L3.6 cells (FIG. 3F), Panc-1 cells (FIG. 3G) and MIA-PaCa2 cells (MIA, FIG. 3H) were cultured in basic DMEM medium and were treated with gemcitabine (Gem, 1 μg/ml). Mitomycin C was always present in the media to prevent cell proliferation from occurring.\nSCID/Beige/Taconic male mice were inoculated with 2×10^6 L3.6 pancreatic cells and treated […] 4 days post tumor implant with thrice weekly (3×/wk) intraperitoneal (I.P.) injections of paclitaxel (taxol) 3.0 mg/ml or gemcitabine (Gem) 10 mg/ml after treatment and were autopsied when near death (as per IRB committee). Mouse survival, tumor volume (in cm^3), and body weight (in grams) were recorded. Average rate of tumor development was calculated by dividing total tumor volume by total number of days monitored.\n(§2) The possible combination effect of C6-ceramide on gemcitabine-induced cytotoxicity (in vitro) and regression (in vivo) of the L3.6 pancreatic cancer cell was also tested according to the methods described in Examples 2 and 3."}, "[1]": {"tested_on": "L3.6 pancreatic cancer cells", "test": "Cell viability / cell death (MTT) in L3.6 pancreatic cancer cells", "assay_type": "cell-based, human", "conditions": "LY 1 μM, rapamycin 100 nM, U0126 1 μg/ml; 48 hours", "experimental": "L3.6 pancreatic cancer cells, cultured either in the basic DMEM medium or with 10% FBS, were treated with the indicated doses of taxol in the presence or absence of C6-ceramide (10 μg/ml) for 48 hours and cell viability was detected by MTT assay (FIGS. 1A-1B). L3.6 cells, cultured either in basic DMEM medium or with 10% FBS, were treated with the indicated dose of C6-ceramide in the presence or absence of taxol (1.5 μg/ml) for 48 hours and cell viability was detected by MTT assay (FIGS. 1C-1D). Mitomycin C (10 μg/ml) was always present in the media to prevent cell proliferation from occurring. The data represents the mean±SD of at least triplicate experiments. *P<0.05 versus group without C6-ceramide presents (FIGS. 1A-1B). **P<0.05 versus group without taxol presents (FIGS. 1C-1D).\nas §1, with “FIGS. 3A-3H show synergistic anti-tumor effects of C6-ceramide and gemcitabine in vivo and in vitro. SCID/Beige/Taconic” for “SCID/Beige/Taconic”, “occurring. The data represent the mean±SD of at least triplicate experiments. *P<0.05 versus group without C6-ceramide presents. The experiments were repeated at least three times and similar results were observed.” for “occurring.”\n(§3) Pancreatic cancer cell lines L3.6 cells were left untreated or treated with gemcitabine (Gem, 1 μg/ml) or taxol (1.5 μg/ml) in the presence or absence of C6-ceramide (10 μg/ml) for 2, 4 and 6 hours, AKT/mTORC1 and ERK activation were detected by Western Blot using indicated antibodies (FIGS. 5A and 5C). p-AKT (S473) and p-ERK at 4 hour time intervals for each treatment quantified (FIGS. 5B and 5D). L3.6 cells were pretreated with various inhibitors including PI3K/AKT inhibitor LY 294002 (LY, 1 μM), mTORC1 inhibitor rapamycin (100 nM), MEK/ERK inhibitor U0126 (1 μg/ml) or gemcitabine (1 μg/ml) for 48 hours, cell death was detected 48 hours later (FIG. 5E). The effects of the various inhibitors described above on AKT/mTORC1 and ERK activation were also detected by Western Blots using commercial available antibodies (FIG. 5F). *P<0.05 versus group without C6-ceramide presents. The experiments were repeated at least three times and similar results were observed.\nCell viability was measured by the 3-[4m5-dimethylthylthiazol-2-y]-2.5 diphenyltetrazolium bromide (MTT) method, as described in Cao et al. (2009) Sci. Signal, 2:RA17. Briefly, the cells were collected and seeded in 96-well plate at a density of 2×10^5 cells/cm^2. Different seeding densities were optimized at the beginning of the experiments. After overnight incubation cells were exposed to fresh medium containing indicated reagents at 37° C. After incubation for different time periods, 20 ul of MTT tetrazolium (Sigma, St. Louis, Mo.) salt dissolved in Hank's balanced solution at a concentration of 5 mg/ml was added to each well and incubated in a CO2 incubator for an additional 4 hours. The medium was subsequently aspirated from each well and 150 ul of DMSO (Sigma, St. Louis, Mo.) was added to dissolve formazan crystals and the absorbance of each well was obtained using a Dynatech MR5000 plate reader at a test wavelength of 490 nm with a reference wavelength of 630 nm. […]"}, "ERK": {"tested_on": "ERK", "test": "Western Blot of ERK activation in L3.6 cells", "assay_type": "cell-based", "experimental": "as §3, with “5E).” for “5E). The effects of the various inhibitors described above on AKT/mTORC1 and ERK activation were also detected by Western Blots using commercial available antibodies (FIG. 5F). *P<0.05 versus group without C6-ceramide presents. The experiments were repeated at least three times and similar results were observed.”\n(§4) As described in Cao et al. (2009) Sci. Signal, 2:RA17, aliquots of 30-40 μg of protein from each sample (treated as indicated in the legends) were separated by 10% SDS-polyacrylamide gel electrophoresis (SDS-PAGE) and transferred onto a polyvinylidene difluoride (PVDF) membrane (Millipore, Bedford, Mass.). After blocking with 10% instant nonfat dry milk for 1 hour, membranes were incubated with specific antibodies overnight at 4° C. followed by incubation with secondary antibodies (HRP-conjugated anti-rabbit or anti-mouse IgG at the appropriate dilutions) for 60 minutes to 1 hour at room temperature. Antibody binding was detected with the enhanced chemiluminescence (ECL) detection system (Amersham Biosciences, Piscataway, N.J.)."}, "Panc-1 cells": {"tested_on": "Panc-1 cells", "test": "Cell death in Panc-1 pancreatic cancer cells", "assay_type": "cell-based", "conditions": "Panc-1; gemcitabine 1.5 μg/ml", "experimental": "as §1, with “FIGS. 3A-3H show synergistic anti-tumor effects of C6-ceramide and gemcitabine in vivo and in vitro. SCID/Beige/Taconic” for “SCID/Beige/Taconic”, “Pancreatic cancer cell lines, including L3.6 cells (FIG. 3F), Panc-1 cells (FIG. 3G) and MIA-PaCa2 cells (MIA, FIG. 3H) were cultured in basic DMEM medium and were treated with gemcitabine (Gem, 1 μg/ml).” left out, “occurring. The data represent the mean±SD of at least triplicate experiments. *P<0.05 versus group without C6-ceramide presents. The experiments were repeated at least three times and similar results were observed.” for “occurring.”\n(§5) Cell viability was measured by the 3-[4m5-dimethylthylthiazol-2-y]-2.5 diphenyltetrazolium bromide (MTT) method, as described in Cao et al. (2009) Sci. Signal, 2:RA17. Briefly, the cells were collected and seeded in 96-well plate at a density of 2×10^5 cells/cm^2. Different seeding densities were optimized at the beginning of the experiments. […] The medium was subsequently aspirated from each well and 150 ul of DMSO (Sigma, St. Louis, Mo.) was added to dissolve formazan crystals and the absorbance of each well was obtained using a Dynatech MR5000 plate reader at a test wavelength of 490 nm with a reference wavelength of 630 nm.\nas §2, with “and 3. […] A synergistic anti-tumor effect of gemcitabine and C6-ceramide in multiple pancreatic cancer cells in vitro was also determined.” for “and 3.”"}, "[2]": {"tested_on": "L3.6 pancreatic cancer cells", "test": "Cell viability / cell death (MTT) in L3.6 pancreatic cancer cells", "assay_type": "cell-based, human", "conditions": "gemcitabine 1.5 μg/ml"}, "MIA-PaCa2 cells": {"tested_on": "MIA-PaCa2 cells", "test": "Cell death in MIA-PaCa2 pancreatic cancer cells", "assay_type": "cell-based", "conditions": "MIA cells; gemcitabine 1.5 μg/ml", "experimental": "as §1, with “FIGS. 3A-3H show synergistic anti-tumor effects of C6-ceramide and gemcitabine in vivo and in vitro. SCID/Beige/Taconic” for “SCID/Beige/Taconic”, “Pancreatic cancer cell lines, including L3.6 cells (FIG. 3F), Panc-1 cells (FIG. 3G) and MIA-PaCa2 cells (MIA, FIG. 3H) were cultured in basic DMEM medium and were treated with gemcitabine (Gem, 1 μg/ml).” left out, “occurring. The data represent the mean±SD of at least triplicate experiments. *P<0.05 versus group without C6-ceramide presents. The experiments were repeated at least three times and similar results were observed.” for “occurring.”\nas §5\nas §2, with “and 3. […] A synergistic anti-tumor effect of gemcitabine and C6-ceramide in multiple pancreatic cancer cells in vitro was also determined.” for “and 3.”"}, "AKT/mTORC1": {"tested_on": "AKT/mTORC1", "test": "Western Blot of AKT/mTORC1 activation in L3.6 cells", "assay_type": "cell-based", "experimental": "as §3, with “5E).” for “5E). The effects of the various inhibitors described above on AKT/mTORC1 and ERK activation were also detected by Western Blots using commercial available antibodies (FIG. 5F). *P<0.05 versus group without C6-ceramide presents. The experiments were repeated at least three times and similar results were observed.”\nas §4"}}, "note": "Entries after “also recorded” stand apart in the source; their conditions may differ."}
{"smiles": "NC(=O)c1ncn([C@@H]2O[C@H](CO)[C@@H](O)[C@H]2O)c1N", "note": "[AICAR]", "values": [{"measurement": "effect on Taxol induced cancer cell death", "setting": "cancer cells", "value": "enhance"}]}
{"smiles": "CCCCCCCCCCCCCCCCCCOC[C@H](COP(=O)(O)O[C@H]1[C@H](O)[C@@H](O)[C@H](O)C[C@H]1OC)OC", "note": "[AKT inhibitor II]", "values": [{"measurement": "Taxol induced cell death in vivo", "setting": "L3.6 pancreatic cells; inhibitor plus taxol, pancreatic cancer model SCID mice, expected", "value": "enhance"}, {"measurement": "effect on Taxol induced cancer cell death", "setting": "cancer cells", "value": "enhance"}]}
{"smiles": "c1cc(-c2cnn3cc(-c4ccc(OCCN5CCCCC5)cc4)cnc23)ccn1", "note": "[Compound C]", "values": [{"measurement": "effect on Taxol induced cancer cell death", "setting": "cancer cells", "value": "inhibits"}]}
{"smiles": "N#CC(=C(N)Sc1ccccc1N)C(C#N)=C(N)Sc1ccccc1N", "note": "[U0126, 1,4-diamino-2,3-dicyano-1,4-bis [2-aminophenylthio]butadiene]", "values": [{"measurement": "effect on gemcitabine induced L3.6 cell death", "setting": "[1]", "value": "largely enhanced; also recorded: sensitized"}, {"measurement": "effect on taxol induced L3.6 cell death", "setting": "[1]", "value": "largely enhanced; also recorded: sensitized"}]}
{"smiles": "Nc1ccn([C@@H]2O[C@H](CO)[C@@H](O)C2(F)F)c(=O)n1", "note": "[gemcitabine]", "values": [{"measurement": "ERK activation / signaling", "setting": "ERK; L3.6 cells, Western Blot", "value": "no effect"}, {"measurement": "effect on C6-ceramide inhibition of ERK activation", "setting": "ERK; added to C6-ceramide", "value": "enhanced"}, {"measurement": "cancer cell death", "setting": "Panc-1 cells", "value": "moderate effect"}, {"measurement": "anti-tumor effect", "setting": "L3.6 pancreatic cells; gemcitabine 10 mg/kg", "value": "moderate anti-tumor effect"}, {"measurement": "survival and tumor growth", "setting": "L3.6 pancreatic cells; low dose gemcitabine 5 mg/kg", "value": "limited effect"}, {"measurement": "cancer cell death", "setting": "[2]", "value": "moderate effect"}, {"measurement": "cancer cell death", "setting": "MIA-PaCa2 cells", "value": "moderate effect"}, {"measurement": "AKT/mTORC1 activation / signaling", "setting": "AKT/mTORC1; L3.6 cells, Western Blot", "value": "no effect"}, {"measurement": "PI3K/AKT/mTOR activation", "setting": "AKT/mTORC1; Taxol alone", "value": "no effect"}, {"measurement": "effect on C6-ceramide induced AKT de-phosphorylation or inhibition", "setting": "AKT/mTORC1; added to C6-ceramide", "value": "dramatically enhanced"}]}
